From US20070111967A1, “Organosilicon compounds and their use” (priority 2003, published 2007)

Which melting point does the source give for `COc1cc(OC)c(NC(=O)c2ccc(Cc3cc4c(cc3C)[Si](C)(C)C[Si]4(C)C)o2)c(OC)c1` here?
Its melting point is 105 °C.
